We go through 16 compounds from patent US20230203041A1, “ANTAGONISTS OF THE ADENOSINE A2A RECEPTOR” (AdoRx Therapeutics Limited, priority 2020, published 2023).

Assay [1] has as its target T1, human Adenosine A3 receptor (Homo sapiens, UniProt P0DMS8).
T1 sequence (P0DMS8 1-318): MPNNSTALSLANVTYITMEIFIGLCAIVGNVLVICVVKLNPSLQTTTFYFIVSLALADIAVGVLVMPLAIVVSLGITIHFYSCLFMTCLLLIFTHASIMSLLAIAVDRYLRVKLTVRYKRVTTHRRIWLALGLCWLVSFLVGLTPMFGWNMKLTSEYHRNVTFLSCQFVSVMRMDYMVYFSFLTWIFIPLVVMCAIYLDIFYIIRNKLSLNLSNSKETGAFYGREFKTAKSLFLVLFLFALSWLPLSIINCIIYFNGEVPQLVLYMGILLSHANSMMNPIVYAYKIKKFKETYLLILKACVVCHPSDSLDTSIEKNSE
Nature of the assay: Adenosine receptor TR-FRET binding assay (CA200645 displacement), A3.

In assay [2] the test system is CD8+ T cells in human whole blood. Nature of the assay: Measurement of pCREB in CD8+ T cells in human whole blood. It counts as cell-based. Particulars: T-cell, 1 h; heparinised human whole blood, rolipram, 3 μM NECA, 60 min, phospho-CREB in CD8+ T cells by FACS. The protocol:
Heparinised human whole blood was pre-incubated at 37° C. with serial dilutions of A2a antagonists for 20 min. and the phosphodiesterase inhibitor rolipram to amplify the pCREB response. The adenosine receptor agonist NECA is then added at a final concentration of 3 μM and following a 60 min incubation the blood is fixed and red blood cells lysed. White blood cells are isolated, permeabilized and stained with directly conjugated fluorescent antibodies to phospho-CREB (Alexa Fluor 488) and CD8 (Alexa Fluor 647) and the level of phospho-CREB in CD8+ T cells is measured by FACS using a BD Accuri C6 Flow Cytometer.

For assay [3], the target named is T2, human Adenosine A2b receptor (Homo sapiens, UniProt P29275).
T2 construct: expressed in transfected cells; host or cells: CHO cell membranes
T2 sequence (P29275 1-332): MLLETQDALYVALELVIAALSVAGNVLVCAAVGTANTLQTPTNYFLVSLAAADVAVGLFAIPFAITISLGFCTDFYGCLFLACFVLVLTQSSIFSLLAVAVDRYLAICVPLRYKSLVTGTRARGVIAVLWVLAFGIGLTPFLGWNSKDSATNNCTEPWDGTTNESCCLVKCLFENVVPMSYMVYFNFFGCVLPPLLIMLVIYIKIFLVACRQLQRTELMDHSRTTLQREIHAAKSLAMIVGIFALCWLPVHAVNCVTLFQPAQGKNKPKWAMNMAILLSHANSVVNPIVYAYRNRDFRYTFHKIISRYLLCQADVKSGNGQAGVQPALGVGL
Description: Adenosine receptor TR-FRET binding assay (CA200645 displacement), A2b. The settings on record: 30 nM CA200645, CHO cell membranes, 2 hours at room temperature.

Assay [4] has as its target T3, human Adenosine A2a receptor (Homo sapiens, UniProt P29274).
T3 construct: expressed in transfected cells; host or cells: CHO cell membranes
Description: Adenosine receptor TR-FRET binding assay (CA200645 displacement), A2a. The settings on record: 100 nM CA200645, CHO cell membranes, 2 hours at room temperature.

In the next assay the test system is human PBMCs. Nature of the assay: CD3/CD28 stimulated IL-2 release NECA reversal assay in human PBMCs.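 Note: dose-response as % inhibition where 100% equals no-NECA control wells with CD3/CD28.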 It counts as cell-based. Particulars: PBMC, CD3/CD28 antibody stimulated, 1 uM NECA, 24 hours, IL-2 in culture supernatant. Put shortly:
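PBMCs from citrated donor blood, 50,000 cells/well on plate-bound CD3 antibody (1 ug/ml), with 1 ug/ml CD28 antibody, 1 uM NECA and antagonist at 0.003-10 μM final. After 24 h at 37° C, supernatant IL-2 was measured by MSD immunoassay.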

The target in assay [5] is T4, human Adenosine A1 receptor (Homo sapiens, UniProt P30542).
T4 sequence (P30542 1-326): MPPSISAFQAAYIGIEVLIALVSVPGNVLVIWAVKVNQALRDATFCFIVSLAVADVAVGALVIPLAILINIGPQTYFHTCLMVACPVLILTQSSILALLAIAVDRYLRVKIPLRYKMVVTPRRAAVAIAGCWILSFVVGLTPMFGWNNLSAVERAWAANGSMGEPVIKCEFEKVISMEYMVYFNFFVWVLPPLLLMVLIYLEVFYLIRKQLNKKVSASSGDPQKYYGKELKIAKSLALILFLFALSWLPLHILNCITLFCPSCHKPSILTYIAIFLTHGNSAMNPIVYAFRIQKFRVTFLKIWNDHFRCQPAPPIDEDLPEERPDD
Description: Adenosine receptor TR-FRET binding assay (CA200645 displacement), A1.

A value given as a limit tells only on which side of the number the result lay.

T3 sequence (P29274 whole entry): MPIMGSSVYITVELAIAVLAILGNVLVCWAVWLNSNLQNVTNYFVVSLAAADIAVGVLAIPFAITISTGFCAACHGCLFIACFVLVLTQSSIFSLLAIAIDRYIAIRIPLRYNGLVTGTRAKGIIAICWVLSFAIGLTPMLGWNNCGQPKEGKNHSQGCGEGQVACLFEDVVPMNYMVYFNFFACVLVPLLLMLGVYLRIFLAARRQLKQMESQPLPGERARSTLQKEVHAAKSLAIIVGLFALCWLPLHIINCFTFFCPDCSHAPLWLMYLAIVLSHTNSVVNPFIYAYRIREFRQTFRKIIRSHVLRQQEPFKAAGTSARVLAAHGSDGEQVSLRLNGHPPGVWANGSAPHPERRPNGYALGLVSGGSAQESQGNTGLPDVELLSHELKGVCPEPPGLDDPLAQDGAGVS

With `Cc1cc(-c2c(-c3cccc(C#N)c3)nn3ccc(NC[C@@H](C)O)nc23)cc(Cl)n1` [Example 3, 3-[3-(2-Chloro-6-methyl-4-pyridyl)-5-[[(2R)-2-hydroxypropyl]amino]pyrazolo[1,5-a]pyrimidin-2-yl]benzonitrile], the inhibition constant (Ki) in assay [1] is over 1000 nM; in assay [3] it was 1 nM; in assay [4], 0.6 nM; in assay [5], 74 nM. The half-maximal inhibitory concentration (IC50) in assay [2] was found to be 750 nM; in the assay on human PBMCs it was 17 nM.
Consider `Cc1cc(-c2c(-c3cccc(C#N)c3)nn3ccc(NC[C@H](C)O)nc23)cc(Cl)n1` [Example 3.1], for which the inhibitory constant (Ki) in assay [1] is 2600 nM; in assay [3] it was 5 nM; in assay [4], 2.2 nM; in assay [5], 58 nM. Further, the half-inhibitory concentration (IC50) was 560 nM in assay [2] and 23 nM in the assay on human PBMCs.
For the compound `Cc1cc(-c2c(-c3cccc(C#N)c3)nn3ccc(NCC4(O)CC4)nc23)cc(Cl)n1` [Example 3.4], the inhibition constant (Ki) came out at 2450 nM in assay [1], 2 nM in assay [3], 0.4 nM in assay [4] and 56 nM in assay [5]. The figures for the IC50 (in assay [2]; in the assay with human PBMCs) were 260 nM and 100 nM, respectively.
With `Cc1cc(-c2c(-c3cccc(C#N)c3)nn3ccc(NC4CCNCC4)nc23)cc(Cl)n1` [Example 4, 3-[3-(2-Chloro-6-methyl-4-pyridyl)-5-(4-piperidylamino)pyrazolo[1,5-a]pyrimidin-2-yl]benzonitrile], the inhibition constant (Ki) in assay [1] was over 1000 nM; in assay [3], 3 nM; in assay [4], 0.1 nM; in assay [5], 15 nM. The values for the IC50 (in assay [2]; with human PBMCs) were 1570 nM and 8 nM, respectively.
For `Cc1cc(-c2c(-c3cccc(C#N)c3)nn3ccc(N[C@@H]4CCCNC4)nc23)cc(Cl)n1` [Example 4.2], the inhibitory constant (Ki) in assay [1] is over 1000 nM; in assay [3], 34 nM; in assay [4], 1.2 nM; in assay [5] it was 32 nM. For the same compound, the IC50 in assay [2] amounted to 2030 nM; in the assay on human PBMCs, 54 nM.
With `Cc1cc(-c2c(-c3cccc(C#N)c3)nn3ccc(NC[C@H]4COCCN4)nc23)cc(Cl)n1` [Example 4.5], the Ki was over 1000 nM in assay [1], 25 nM in assay [3], 4.2 nM in assay [4] and 189 nM in assay [5]. The IC50 in assay [2] is 1060 nM; in the assay with human PBMCs, 12 nM.
Turning to `Cc1cc(-c2c(-c3cccc(C#N)c3)nn3ccc(C(=O)NC45CC(O)(C4)C5)nc23)cc(Cl)n1` [Example 5, 3-(2-Chloro-6-methyl-4-pyridyl)-2-(3-cyanophenyl)-N-(3-hydroxy-1-bicyclo[1.1.1]pentanyl)pyrazolo[1,5-a]pyrimidine-5-carboxamide], the inhibition constant (Ki) was over 1000 nM in assay [1], 9 nM in assay [3], 0.8 nM in assay [4] and 296 nM in assay [5]. For the same compound, the half-maximal inhibitory concentration (IC50) in assay [2] came out at 1820 nM; in the assay on human PBMCs, 23 nM.
Turning to `Cc1cc(-c2c(-c3cccc(C#N)c3)nn3ccc(C(=O)NC(C)(C)C)nc23)cc(Cl)n1` [Example 5.1], the Ki in assay [1] was over 1000 nM; in assay [3], 16 nM; in assay [4], 0.1 nM; in assay [5], 477 nM. In addition, the half-inhibitory concentration (IC50) in assay [2] turned out to be 2860 nM; in the assay on human PBMCs, 20 nM.
Consider `Cc1cc(-c2c(-c3cccc(C#N)c3)nn3ccc(C(=O)NCC(C)(C)O)nc23)cc(Cl)n1` [Example 5.2], for which the inhibition constant Ki is over 1000 nM in assay [1], 24 nM in assay [3], 0.2 nM in assay [4] and 294 nM in assay [5]. In addition, the half-maximal inhibitory concentration (IC50) in assay [2] was 280 nM; with human PBMCs, 4 nM.
As to `Cc1cc(-c2c(-c3cccc(C#N)c3)nn3ccc(C(N)=O)nc23)cc(Cl)n1` [Example 5.6], the Ki is over 1000 nM in assay [1], 16 nM in assay [3], 4.6 nM in assay [4] and 303 nM in assay [5]. The half-maximal inhibitory concentration (IC50) in assay [2] was determined as 8540 nM; in the assay with human PBMCs it was 16 nM.
For `Cc1cc(-c2c(-c3cccc(C#N)c3)nn3ccc(C(=O)N[C@@H](C)C(C)(C)O)nc23)cc(Cl)n1` [Example 6, 3-(2-Chloro-6-methyl-4-pyridyl)-2-(3-cyanophenyl)-N-[(1S)-2-hydroxy-1,2-dimethyl-propyl]pyrazolo[1,5-a]pyrimidine-5-carboxamide], the inhibition constant (Ki) in assay [1] was 945 nM; in assay [3], 6 nM; in assay [4], 0.1 nM; in assay [5] it was 57 nM. For the same compound, the values for the concentration for half-maximal inhibition (IC50) (in assay [2]; with human PBMCs) were 30 nM and 2 nM, respectively.
Take `Cc1cc(-c2c(-c3cccc(C#N)c3)nn3ccc(C(=O)NCC4(O)CC4)nc23)cc(Cl)n1` [Example 6.2, 3-(2-Chloro-6-methyl-4-pyridyl)-2-(3-cyanophenyl)-N-[(1-hydroxycyclopropyl)methyl]pyrazolo[1,5-a]pyrimidine-5-carboxamide]: the Ki came to 2310 nM in assay [1], 10 nM in assay [3], 0.3 nM in assay [4] and 122 nM in assay [5]. The 50% inhibitory concentration (IC50) turned out to be 830 nM in assay [2] and 8 nM with human PBMCs.
For the compound `Cc1cc(-c2c(-c3cccc(C#N)c3)nn3ccc(C(=O)N[C@H](C)C(C)(C)O)nc23)cc(Cl)n1` [Example 6.4, 3-(2-Chloro-6-methyl-4-pyridyl)-2-(3-cyanophenyl)-N-[(1 R)-2-hydroxy-1,2-dimethyl-propyl]pyrazolo[1,5-a]pyrimidine-5-carboxamide], the inhibition constant (Ki) in assay [1] stood at 1820 nM; in assay [3], 30 nM; in assay [4] it was 0.6 nM; in assay [5], 402 nM. Further, the figures for the IC50 (in assay [2]; with human PBMCs) were 430 nM and 6 nM, respectively.
For the compound `Cc1cc(-c2c(-c3cccc(C#N)c3)nn3ccc(C(=O)NCC(C)(O)CO)nc23)cc(Cl)n1` (stereo not drawn) [Example 6.9, 3-(2-Chloro-6-methyl-4-pyridyl)-2-(3-cyanophenyl)-N-(2,3-dihydroxy-2-methyl-propyl)pyrazolo[1,5-a]pyrimidine-5-carboxamide], the Ki in assay [1] is over 1000 nM; in assay [3], 2 nM; in assay [4] it was 0.9 nM; in assay [5], 232 nM. Besides, the IC50 in assay [2] stood at 160 nM; with human PBMCs it was 10 nM.
As for `Cc1cc(-c2c(-c3cccc(C#N)c3)nn3ccc(C(=O)NC[C@H](O)CO)nc23)cc(Cl)n1` [Example 6.13, 3-(2-Chloro-6-methyl-4-pyridyl)-2-(3-cyanophenyl)-N-[(2S)-2,3-dihydroxypropyl]pyrazolo[1,5-a]pyrimidine-5-carboxamide], the Ki in assay [1] is over 1000 nM; in assay [3] it was 17 nM; in assay [4], 1.7 nM; in assay [5], 424 nM. The IC50 turned out to be 390 nM in assay [2] and 32 nM with human PBMCs.
Turning to `CO[C@H]1CN(C)C[C@@H]1NC(=O)c1ccn2nc(-c3cccc(C#N)c3)c(-c3cc(C)nc(Cl)c3)c2n1` [Example 6.14, 3-(2-Chloro-6-methyl-4-pyridyl)-2-(3-cyanophenyl)-N-[(3S,4S)-4-methoxy-1-methyl-pyrrolidin-3-yl]pyrazolo[1,5-a]pyrimidine-5-carboxamide], the inhibitory constant (Ki) in assay [1] was over 1000 nM; in assay [3], 60 nM; in assay [4] it was 1.1 nM; in assay [5], 231 nM. Besides, the figures for the IC50 (in assay [2]; with human PBMCs) were 370 nM and 18 nM, respectively.
